Experimental data reported in patent publication US20030166001A1, “Toll-like receptor 3 signaling agonists and antagonists” (priority 2001, published 2003).
In the oligonucleotide strings, read from the 5' end, every base follows the letter of its sugar. An asterisk marks phosphorothioate; unmarked linkages are phosphodiester. Other units and linkages are bracketed, terminal groups are in braces. A string of capitals states the bases alone. d = 2'-deoxy (DNA)

Legend:
[1] = biological target: T1, murine TLR9 (Mus musculus, UniProt Q9EQU3); test: 293 fibroblasts stably transfected with murine TLR9 and NF-κB-luciferase reporter, ODN stimulation; conditions: for course of activity (EC50) curves with time: ODN with less stable diester linkages; for EC50: read-out: EC50 (concentration of the ligand stimulus that results in 50% maximal activation), NF-κB luciferase induction, stimulated for 16 hours, ODN titrated between 10 μM and 2 nM, FIG. 6
T1 sequence (Q9EQU3 26-1032): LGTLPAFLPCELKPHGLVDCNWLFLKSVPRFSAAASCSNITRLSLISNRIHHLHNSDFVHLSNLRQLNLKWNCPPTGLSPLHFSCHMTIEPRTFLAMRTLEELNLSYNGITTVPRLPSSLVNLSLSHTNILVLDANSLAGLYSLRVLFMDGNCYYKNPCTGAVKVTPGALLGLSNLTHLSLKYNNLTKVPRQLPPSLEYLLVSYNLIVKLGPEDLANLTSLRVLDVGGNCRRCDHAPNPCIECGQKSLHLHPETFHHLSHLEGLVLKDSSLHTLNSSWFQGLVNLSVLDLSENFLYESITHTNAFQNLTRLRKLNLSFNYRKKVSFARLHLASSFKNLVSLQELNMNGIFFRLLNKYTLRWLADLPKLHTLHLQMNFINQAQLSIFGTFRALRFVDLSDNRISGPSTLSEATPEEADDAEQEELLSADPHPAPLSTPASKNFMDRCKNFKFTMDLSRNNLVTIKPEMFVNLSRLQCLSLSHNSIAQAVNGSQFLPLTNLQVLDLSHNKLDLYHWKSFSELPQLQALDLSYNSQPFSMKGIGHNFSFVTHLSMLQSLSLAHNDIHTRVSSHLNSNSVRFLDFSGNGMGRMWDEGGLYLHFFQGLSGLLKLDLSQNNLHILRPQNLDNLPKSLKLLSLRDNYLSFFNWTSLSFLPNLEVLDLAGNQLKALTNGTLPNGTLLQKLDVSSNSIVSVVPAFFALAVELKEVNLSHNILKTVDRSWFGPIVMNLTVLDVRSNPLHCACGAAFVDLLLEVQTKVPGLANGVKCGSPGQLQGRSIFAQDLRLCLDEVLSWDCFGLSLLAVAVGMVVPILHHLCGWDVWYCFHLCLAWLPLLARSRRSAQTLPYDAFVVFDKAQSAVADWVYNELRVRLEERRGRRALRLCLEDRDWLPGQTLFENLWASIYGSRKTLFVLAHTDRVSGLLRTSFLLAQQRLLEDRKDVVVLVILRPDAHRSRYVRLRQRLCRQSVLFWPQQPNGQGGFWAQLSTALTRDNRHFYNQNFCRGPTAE
Method: (§1) Human 293 fibroblast cells stably transfected with murine TLR9 and an NF-κB-luciferase reporter were stimulated for 16 hours with the following fully phosphorothioated oligodeoxynucleotides (ODN):
(§2) Concentration of the stimulus was titrated between 10 μM and 2 nM. […] EC50 is defined as the concentration of the ligand stimulus that results in 50% maximal activation.
(§3) A family of stimulation curves was determined at various times of assay incubation between 1 and 24 hours. The EC50 was determined for each ligand at each time point.

[2] = biological target: T2, hTLR9 (Homo sapiens, UniProt Q9NR96); test: 293 fibroblasts transiently transfected with hTLR9, NF-κB-luc readout or IL-8 ELISA; type: cell-based; conditions: CpG-ODN 2006 2 μM, LPS 100 ng/ml; 8 h luciferase, 48 h IL-8; FIG. 1
T2 construct: expressed in transfected cells; host or cells: human 293 fibroblasts (ATCC CRL-1573), transient transfection by the calcium phosphate method
T2 sequence (Q9NR96 26-1032): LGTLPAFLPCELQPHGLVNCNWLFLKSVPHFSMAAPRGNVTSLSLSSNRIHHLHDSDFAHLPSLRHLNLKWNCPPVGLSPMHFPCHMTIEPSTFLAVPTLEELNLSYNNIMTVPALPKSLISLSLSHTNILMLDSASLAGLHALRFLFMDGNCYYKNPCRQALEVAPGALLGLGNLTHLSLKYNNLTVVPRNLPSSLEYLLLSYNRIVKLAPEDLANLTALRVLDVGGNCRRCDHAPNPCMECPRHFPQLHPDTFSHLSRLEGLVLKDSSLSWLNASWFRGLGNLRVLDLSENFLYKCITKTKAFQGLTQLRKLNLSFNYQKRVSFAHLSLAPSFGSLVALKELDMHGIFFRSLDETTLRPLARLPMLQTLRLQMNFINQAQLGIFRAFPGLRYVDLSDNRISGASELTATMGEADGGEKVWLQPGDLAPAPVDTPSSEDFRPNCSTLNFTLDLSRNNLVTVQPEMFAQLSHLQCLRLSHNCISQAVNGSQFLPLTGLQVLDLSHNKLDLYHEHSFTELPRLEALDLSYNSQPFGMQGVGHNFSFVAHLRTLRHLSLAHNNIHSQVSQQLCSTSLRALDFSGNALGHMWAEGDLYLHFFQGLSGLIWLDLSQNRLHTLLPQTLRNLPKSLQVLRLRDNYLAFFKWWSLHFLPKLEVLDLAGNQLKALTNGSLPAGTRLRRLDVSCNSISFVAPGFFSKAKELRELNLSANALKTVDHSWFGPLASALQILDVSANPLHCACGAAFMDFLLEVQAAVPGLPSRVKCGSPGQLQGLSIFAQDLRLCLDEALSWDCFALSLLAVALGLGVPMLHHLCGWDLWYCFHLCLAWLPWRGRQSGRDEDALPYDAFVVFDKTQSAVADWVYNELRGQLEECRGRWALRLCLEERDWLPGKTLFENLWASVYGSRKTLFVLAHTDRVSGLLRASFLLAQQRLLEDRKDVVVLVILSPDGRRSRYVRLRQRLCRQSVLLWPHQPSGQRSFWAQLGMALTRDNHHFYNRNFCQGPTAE
Excerpt: Methods for cloning murine and human TLR9 have been described in pending U.S. patent application Ser. No. 09/954,987 and corresponding published PCT application PCT/US01/29229, both filed Sep. 17, 2001, the contents of which are incorporated by reference. Human TLR9 cDNA and murine TLR9 cDNA in pT-Adv vector (from Clonetech) were individually cloned into the expression vector pcDNA3.1(−) from Invitrogen using the EcoRI site. Utilizing a “gain of function” assay it was possible to reconstitute human TLR9 (hTLR9) and murine TLR9 (mTLR9) signaling in CpG-DNA non-responsive human 293 fibroblasts (ATCC, CRL-1573). The expression vectors mentioned above were transfected into 293 fibroblast cells using the calcium phosphate method.
Since NF-κB activation is central to the IL-1/TLR signal transduction pathway (Medzhitov R et al. (1998) Mol Cell 2:253-258 (1998); Muzio M et al. (1998) J Exp Med 187:2097-101), cells were transfected with hTLR9 or co-transfected with hTLR9 and an NF-κB-driven luciferase reporter construct. […] After stimulus with CpG-ODN (2006, 2 μM, […], SEQ ID NO:15), GpC-ODN (2006-GC, 2 μM, […], SEQ ID NO:16), LPS (100 ng/ml) or media, NF-κB activation by luciferase readout (8 h, FIG. 1A) or IL-8 production by ELISA (48 h, FIG. 1B) were monitored. […]

[3] = biological target: T1, murine TLR9
Method: as §1, §2, §3

[4] = assay incubation between 1 and 24 hours, FIG. 7

T*C*G*T*C*G*T*T*T*T_G_T_C_G_T*T*T*T*G*T*C*G*T*T [ODN 5497]
course of activity (EC50) curves with time [1, 4]: turn upward with time

T*C_G*T*C_G*T*T*T*T_G*T*C_G*T*T*T*T*G*T*C_G*T*T [ODN 5746]
course of activity (EC50) curves with time [1, 4]: turn upward with time

T*C*G*T*C*G*T*T*T*T*G*T*C*G*T*T*T*T*G*T*C*G*T*T [ODN 2006]
response of cells expressing hTLR9 (NF-κB activation by luciferase readout, IL-8 production by ELISA) [2]: responded

lipopolysaccharide [LPS]
response of cells expressing hTLR9 (NF-κB activation by luciferase readout, IL-8 production by ELISA) [2]: not

T*C*C*A*T*G*A*C_G_T*T*T*T*T*G*A*T_G*T*T [ODN 5902]
course of activity (EC50) curves with time [1, 4]: turn upward with time

T*C*C*A*T*G*A*C*G*T*T*T*T*T*G*A*T*G*T*T (TCCATGACGTTTTTGATGTT; chemistry not given here) [ODN 5890]
affinity of ligand/receptor interaction from EC50 versus time curves [1, 4]: higher affinity | EC50 [1]: 0.042 µM | maximal activity (maximal fold induction) versus time [3]: less efficient at delivering high activity

T*C*C*A*T*G*A*C*G*T*T*T*T*T (dT*dC*dC*dA*dT*dG*dA*dC*dG*dT*dT*dT*dT*dT) [ODN 5897]
EC50 [1]: 1.22 µM
